For this assay, the target named is T1, human B-Raf (Homo sapiens, UniProt P15056).
T1 construct: Flag; GST; made in house; host or cells: Sf9 insect cells (B-Raf); E. coli (MEK1-GST)
Kind of assay: B-Raf Kinase to MEK1 ELISA. The following applies: for inhibition at 10 µM: read-out: % Inhib./10 uM; for % Inhib./10 uM: single point assay. Type of assay: biochemical. An excerpt:
TITLE: B-Raf Kinase to MEK1 ELISA
PURPOSE: To discover B-Raf Kinase inhibitors that can inhibit growth of tumor cells which contain oncogenic forms of Receptor Tyrosine Kinases or K-Ras, or B-Raf kinase.
Reagents: Flag/GST-tagged recombinant human B-Raf produced in Sf9 insect cells, human non-active Mek-1-GST (recombinant protein produced in E. coli); and a phospho-MEK1 specific poly-clonal Ab from Cell Signaling Technology (cat. #9121).
B-Raf1 Kinase Assay Procedure:
B-Raf-1 is used to phosphorylate GST-MEK1. MEK1 phosphorylation is measured by a phospho-specific antibody (from Cell Signaling Technology, cat. #9121) that detects phosphorylation of two serine residues at positions 217 and 221 on MEK1.
B-Raf Assay Stock Solutions:
1. Assay Dilution Buffer (ADB): 20 mM MOPS, pH 7.2, 25 mM β-glycerol phosphate, 5 mM EGTA, 1 mM sodium orthovanadate, 1 mM dithiothreitol.
2. Magnesium/ATP Cocktail: 200 μM cold ATP and 40 mM magnesium chloride in ADB.
3. Active Kinase: Active B-Raf: used at ˜20 ng per assay point.
4. Non-active GST-MEK1: Use at 100 nM (50 nM final).
6. Anti-GST Ab (Pharmacia)
7. Anti-rabbit Ab/Europium conjugate (Wallac)
1. Add 25 μl of ADB containing B-Raf and Mek per assay (i.e. per well of a 96 well plate)
2. Add 25 μl of 0.2 mM ATP and 40 mM magnesium chloride in ADB.
3. Incubate for 60 minutes at RT in a shaking incubator.
4. Transfer this mixture to an anti-GST Ab coated 96 well plate (Nunc Immunosorb plates coated o/n with a-GST.
5. Incubate for 60 minutes at 30° C. in a shaking incubator
6. Wash 3× with TBST, add Anti-Phospho MEK1 (1:1000)
7. Incubate for 60 minutes at 30° C. in a shaking incubator
8. Wash 3× with TBST, add Anti-rabbit Ab/Europium conjugate (Wallac) (1:500)
9. Incubate for 60 minutes at 30° C. in a shaking incubator
10. Add 100 ul of Wallac Delfia Enhancement Solution and shake for 10 minutes.
11. Read plates in Wallac Victor model Plate Reader.
12. Collect data analyze in Excel for single point and IC50 determinations.
Typically Raf-1 assay is run at cpd concentrations from 10 μM to 30 nM in half log dilutions. (% inhibition is determined for each cpd concentration)

Where [1] appears, read: median, cpd concentrations from 10 μM to 30 nM in half log dilutions, read-out: Median IC50.

Like-named read-outs stand apart in the source and are kept apart here.

T1 sequence (P15056 whole entry): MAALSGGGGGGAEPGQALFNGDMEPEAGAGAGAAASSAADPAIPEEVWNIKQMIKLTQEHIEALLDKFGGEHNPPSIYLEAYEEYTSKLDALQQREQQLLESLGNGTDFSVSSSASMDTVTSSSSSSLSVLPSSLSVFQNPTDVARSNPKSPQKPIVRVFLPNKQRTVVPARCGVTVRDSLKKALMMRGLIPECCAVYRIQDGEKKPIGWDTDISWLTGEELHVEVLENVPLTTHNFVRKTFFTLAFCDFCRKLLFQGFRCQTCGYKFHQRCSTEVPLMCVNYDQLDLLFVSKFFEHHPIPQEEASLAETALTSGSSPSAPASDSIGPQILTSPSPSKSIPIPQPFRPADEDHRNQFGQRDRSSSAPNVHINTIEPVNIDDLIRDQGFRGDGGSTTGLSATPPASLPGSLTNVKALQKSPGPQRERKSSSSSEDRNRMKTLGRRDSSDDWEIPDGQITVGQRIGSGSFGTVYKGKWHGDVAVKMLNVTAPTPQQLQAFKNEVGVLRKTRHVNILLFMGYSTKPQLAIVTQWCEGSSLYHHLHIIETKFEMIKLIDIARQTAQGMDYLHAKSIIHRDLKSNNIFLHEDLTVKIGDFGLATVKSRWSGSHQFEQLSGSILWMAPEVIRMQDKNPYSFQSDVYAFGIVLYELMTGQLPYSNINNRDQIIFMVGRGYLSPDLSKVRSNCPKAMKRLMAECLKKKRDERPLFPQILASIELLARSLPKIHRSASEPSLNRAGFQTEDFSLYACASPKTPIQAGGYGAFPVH

Consider `CCOC(=O)c1cnn2c(-c3cccc(NC(=O)c4ccc(Cl)c(Cl)c4)c3)ccnc12` [Example 71, ethyl 7-{3-[(3,4-dichlorobenzoyl)amino]phenyl}pyrazolo[1,5-a]pyrimidine-3-carboxylate], for which the inhibition at 10 µM came to 0%. Moreover, the IC50 under setting [1] is greater than 10 µM.

Turning to “ethyl 7-{3-[({[(ethoxycarbonyl)phenyl]amino}carbonyl)amino]phenyl}pyrazolo[1,5-a]pyrimidine-3-carboxylate [Example 15]”, the “% Inhib./10 uM” value is on record as 0%. The IC50 under setting [1] was greater than 10 µM.

On to `CCN(CC)CCNC(=O)c1cnn2c(-c3cccc(NC(=O)Nc4ccc(Cl)c(C(F)(F)F)c4)c3)ccnc12` [Example 122, 7-{3-[({[4-chloro-3-(trifluoromethyl)phenyl]amino}carbonyl)amino]phenyl}-N-[2-(diethylamino)ethyl]pyrazolo[1,5-a]pyrimidine-3-carboxamide], for which the IC50 is 0.14 µM and the inhibition at 10 µM was determined as 83%.

With `CC(=O)Nc1ccc(-c2cnn3c(-c4cccc(NC(=O)c5ccc(C)c(C(F)(F)F)c5)c4)ccnc23)cc1` [Example 184, N-(3-{3-[4-(acetylamino)phenyl]pyrazolo[1,5-a]pyrimidin-7-yl}phenyl)-4-methyl-3-(trifluoromethyl)benzamide], the midpoint of inhibition, the IC50, lay at 0.2 µM and the inhibition at 10 µM was found to be 89%.

For `COCCCNC(=O)c1cnn2c(-c3cccc(NC(=O)Nc4ccc(Cl)c(C(F)(F)F)c4)c3)ccnc12` [Example 121, 7-{3-[({[4-chloro-3-(trifluoromethyl)phenyl]amino}carbonyl)amino]phenyl}-N-(3-methoxypropyl)pyrazolo[1,5-a]pyrimidine-3-carboxamide], the inhibition at 10 µM was determined as 92%. Further, the half-inhibitory concentration (IC50) under setting [1] came out at 0.19 µM.

As to `O=C(Nc1cccc(-c2ccnc3c(Br)cnn23)c1)c1ccc(Cl)c(C(F)(F)F)c1` [Example 164, N-[3-(3-bromopyrazolo[1,5-a]pyrimidin-7-yl)phenyl]-4-chloro-3-(trifluoromethyl)benzamide], the inhibition at 10 µM turned out to be 58%. Also, under setting [1], the IC50 was greater than 10 µM.

As to `O=C(Nc1cccc(-c2ccnc3c(Br)cnn23)c1)Nc1cccc(C(F)(F)F)c1` [Example 166, N-[3-(3-bromopyrazolo[1,5-a]pyrimidin-7-yl)phenyl]-N′-[3-(trifluoromethyl)phenyl]urea], the inhibition at 10 µM is 94%. In addition, the IC50 under setting [1] is 1.33 µM.

As for `CCOC(=O)c1cnn2c(-c3cccc(NC(=O)c4cc(F)c(Cl)cc4F)c3)ccnc12` [Example 29, ethyl 7-{3-[(4-chloro-2,5-difluorobenzoyl)amino]phenyl}pyrazolo[1,5-a]pyrimidine-3-carboxylate], the inhibition at 10 µM is 0%. The 50% inhibitory concentration (IC50) under setting [1] is greater than 10 µM.

Take `CCOC(=O)c1cnn2c(-c3cccc(NC(=O)Nc4cc(Cl)cc(Cl)c4)c3)ccnc12` [Example 17, ethyl 7-[3-({[(3,5-dichlorophenyl)amino]carbonyl}amino)phenyl]pyrazolo[1,5-a]pyrimidine-3-carboxylate]: the inhibition at 10 µM is 30%. The half-inhibitory concentration (IC50) under setting [1] was greater than 10 µM.

For the compound `O=C(Nc1cccc(-c2ccnc3c(Br)cnn23)c1)c1ccc(Cl)c(Cl)c1` [Example 165, N-[3-(3-bromopyrazolo[1,5-a]pyrimidin-7-yl)phenyl]-3,4-dichlorobenzamide], the inhibition at 10 µM was 64%. In addition, the IC50 under setting [1] was greater than 10 µM.

Consider `Cn1c(C(=O)Nc2cccc(-c3ccnc4cc(-c5ccncc5)nn34)c2)cc2ccccc21` [Example 238, 1-methyl-N-[3-(2-pyridin-4-ylpyrazolo[1,5-a]pyrimidin-7-yl)phenyl]-1H-indole-2-carboxamide], for which the inhibition at 10 µM turned out to be 50%. Besides, under setting [1], the IC50 was greater than 10 µM.

On to `COc1ccc(-c2cc3nccc(-c4cccc(NC(=O)c5cccc(C(F)(F)F)c5)c4)n3n2)cc1` [Example 136, N-{3-[2-(4-methoxyphenyl)pyrazolo[1,5-a]pyrimidin-7-yl]phenyl}-3-(trifluoromethyl)benzamide], for which the IC50 is greater than 10 µM and the inhibition at 10 µM is 35%.

With `CN(C)Cc1cccc(-c2cnn3c(-c4cccc(NC(=O)c5cccc(C(F)(F)F)c5)c4)ccnc23)c1` [Example 273, N-[3-(3-{3-[(dimethylamino)methyl]phenyl}pyrazolo[1,5-a]pyrimidin-7-yl)phenyl]-3-(trifluoromethyl)benzamide], the inhibition at 10 µM was 97%. In addition, under setting [1], the IC50 amounted to 0.0438 µM.

For `CCOC(=O)c1cnn2c(-c3cccc(NC(=O)Nc4cc(C)no4)c3)ccnc12` [Example 247, ethyl7-[3-({[(3-methylisoxazol-5-yl)amino]carbonyl}amino)phenyl]pyrazolo[1,5-a]pyrimidine-3-carboxylate], the inhibition at 10 µM worked out at 15%. Under setting [1], the 50% inhibitory concentration (IC50) was greater than 10 µM.

With `O=C(Nc1cccc(-c2ccnc3c(-c4cccnc4)cnn23)c1)Nc1ccc(Cl)c(Cl)c1` [Example 175, N-(3,4-dichlorophenyl)-N′-[3-(3-pyridin-3-ylpyrazolo[1,5-a]pyrimidin-7-yl)phenyl]urea], the inhibition at 10 µM amounted to 70%. The 50% inhibitory concentration (IC50) under setting [1] was found to be 0.45 µM.

For `O=C(Nc1cccc(-c2ccnc3cc(-c4ccncc4)nn23)c1)c1ccccc1Cl` [Example 145, 2-chloro-N-[3-(2-pyridin-4-ylpyrazolo[1,5-a]pyrimidin-7-yl)phenyl]benzamide], the inhibition at 10 µM was determined as 24%. For the same compound, the 50% inhibitory concentration (IC50) under setting [1] was greater than 10 µM.

As for `CCOC(=O)c1cnn2c(-c3cccc(NC(=O)c4cc(Cl)ccn4)c3)ccnc12` [Example 217, ethyl7-(3-{[(4-chloropyridin-2-yl)carbonyl]amino}phenyl)pyrazolo[1,5-a]pyrimidine-3-carboxylate], the inhibition at 10 µM came to 34%. Also, the IC50 under setting [1] is greater than 10 µM.

For `CN(C)CCOC(=O)c1cnn2c(-c3cccc(NC(=O)c4cccc(C(F)(F)F)c4)c3)ccnc12` [Example 127, 2-(dimethylamino)ethyl 7-(3-{[3-(trifluoromethyl)benzoyl]amino}phenyl)pyrazolo[1,5-a]pyrimidine-3-carboxylate], the inhibition at 10 µM turned out to be 54%. Under setting [1], the IC50 worked out at 7.07 µM.

`CCOC(=O)c1cnn2c(-c3cccc(NC(=O)Cc4ccc(OC)c(C)c4)c3)ccnc12` [Example 101, ethyl 7-(3-{[(4-methoxy-3-methylphenyl)acetyl]amino}phenyl)pyrazolo[1,5-a]pyrimidine-3-carboxylate]: the inhibition at 10 µM is 0%. Further, under setting [1], the IC50 was greater than 10 µM.

On to `O=C(Nc1cccc(-c2ccnc3c(C(=O)O)cnn23)c1)c1cccc(C(F)(F)F)c1` [Example 32, 7-(3-{[3-(trifluoromethyl)benzoyl]amino}phenyl)pyrazolo[1,5-a]pyrimidine-3-carboxylic acid], for which the inhibition at 10 µM worked out at 29%. For the same compound, under setting [1], the IC50 is greater than 10 µM.

As for `CCOC(=O)c1cnn2c(-c3cccc(NC(=O)c4cc(Cl)ccc4Br)c3)ccnc12` [Example 228, ethyl7-{3-[(2-bromo-5-chlorobenzoyl)amino]phenyl}pyrazolo[1,5-a]pyrimidine-3-carboxylate], the inhibition at 10 µM turned out to be 7%. Under setting [1], the concentration for half-maximal inhibition (IC50) was greater than 10 µM.

Consider `CCOC(=O)c1cnn2c(-c3cccc(NC(=O)Nc4ccc(C)c(C(F)(F)F)c4)c3)ccnc12` [Example 79, ethyl 7-{3-[({[4-methyl-3-(trifluoromethyl)phenyl]amino}carbonyl)amino]phenyl}pyrazolo[1,5-a]pyrimidine-3-carboxylate], for which the inhibition at 10 µM is 88%. Moreover, the IC50 under setting [1] was determined as 0.37 µM.

As for “N-{3-[3-(4-methoxyphenyl)pyrazolo[1,5-a]pyrimidin-7-yl]phenyl}-3-(trifluoromethyl)benzamide [Example 159]”, the “% Inhib./10 uM” value is reported as 5%. Moreover, the IC50 under setting [1] is greater than 10 µM.

As to `CCOC(=O)c1cnn2c(-c3cccc(NC(=O)Nc4ccc(Br)c(Cl)c4)c3)ccnc12` [Example 83, ethyl 7-[3-({[(4-bromo-3-chlorophenyl)amino]carbonyl}amino)phenyl]pyrazolo[1,5-a]pyrimidine-3-carboxylate], the inhibition at 10 µM came out at 71%. The 50% inhibitory concentration (IC50) under setting [1] was determined as 0.6 µM.

Take `CC(C)(C)c1cc2nccc(-c3cccc(NC(=O)c4cccc(C(F)(F)F)c4)c3)n2n1` [Example 138, N-[3-(2-tert-butylpyrazolo[1,5-a]pyrimidin-7-yl)phenyl]-3-(trifluoromethyl)benzamide]: the inhibition at 10 µM is 46%. In addition, under setting [1], the 50% inhibitory concentration (IC50) is greater than 10 µM.

The record behind these values is patent publication US20070219186A1, “Pyrazolo[1,5-A]pyrimidine derivatives and methods of use thereof” (priority 2006, published 2007).
